The results in this text go back to patent US11434246B2, “EP4 antagonists” (Eisai R&D Management Co., Ltd., priority 2015, dated 2022).

Chain of EP4 (P35408 whole entry): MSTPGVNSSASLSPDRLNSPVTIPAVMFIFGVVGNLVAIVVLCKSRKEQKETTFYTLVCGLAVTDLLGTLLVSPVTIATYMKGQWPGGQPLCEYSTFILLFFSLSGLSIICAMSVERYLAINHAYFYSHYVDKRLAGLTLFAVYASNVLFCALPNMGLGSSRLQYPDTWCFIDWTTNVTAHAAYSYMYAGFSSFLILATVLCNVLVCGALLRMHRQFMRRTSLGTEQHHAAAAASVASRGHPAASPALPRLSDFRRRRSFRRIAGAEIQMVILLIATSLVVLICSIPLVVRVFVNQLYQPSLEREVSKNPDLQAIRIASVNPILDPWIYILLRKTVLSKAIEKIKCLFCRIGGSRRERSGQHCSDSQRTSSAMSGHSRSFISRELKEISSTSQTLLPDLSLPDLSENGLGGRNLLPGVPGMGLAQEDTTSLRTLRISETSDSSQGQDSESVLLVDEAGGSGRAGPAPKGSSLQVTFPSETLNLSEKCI

The test deals with EP4 (Homo sapiens, UniProt P35408). Briefly: EP4 Antagonism by CRE-PLAP Reporter Assay (SE302 cells, PGE2-stimulated). It counts as cell-based. Set-up: HEK293 cells express endogenous EP4; endogenous in cells; host or cells: SE302 (HEK293 clone with CRE-PLAP reporter). To be noted: SE302 (HEK293) cells, 3 ng/mL PGE2, overnight; single or multiple assay average values. An excerpt:
PGE2 and [^3H]-labelled PGE2 were purchased from Cayman Chemical (Ann Arbor, Mich.) and Perkin Elmer (Waltham, Mass.), respectively. Mouse breast 4T1 cells (CRL-2539) were obtained from American Tissue Culture Collection. SE302 cell line is a clone of the HEK293 cells containing cAMP response element (CRE) promoter that when activated drives secretion of placental-like alkaline phosphatase (PLAP). HEK293 cells express endogenous EP4 and show induction of PLAP in response to PGE2 and EP4 agonists, but not EP1, 2 or 3 agonists (Chen Q, Muramoto K, Masaaki N, Ding Y, Yang H, Mackey M, Li W, Inoue Y, Ackermann K, Shrota H, Matsumoto I, Spyvee M, Schiller S, Sumida T, Gusovsky F, and Lamphier M. A novel antagonist of the prostaglandin E2 EP4 receptor inhibits Th1 differentiation and Th17 expansion and is orally active in arthritis models. British J Pharmacol, 2010, 160: 292-310). BalB/C female mice at 7-8 week age were purchased from Jackson Laboratory (Bar Harbor, Me.). Mice were maintained under specific pathogen-free conditions.
EP4 Antagonism by CRE-PLAP Reporter Assay: SE302 cells were maintained in DMEM/F12 (50:50) (MediaTech) supplemented with 10% FBS (Tissue Culture Biologicals) plus penicillin/streptomycin. When used for assays, cells were plated in a 96-well plate at 2×10^4 cells/100 μL/well in serum-free assay medium (DMEM/F12 supplemented with 0.1% BSA plus penicillin/streptomycin) and incubated for 4-6 h. Cells were then stimulated with 3 ng/mL of PGE2 in the presence or absence of various concentrations of test compound overnight, and PLAP activity was measured by mixing 15 μL of culture supernatants with 75 μL of Lumi-phos (Lumigen, Inc.) and 60 μL of assay buffer containing 8 mmol/L MgSO4 in 0.1 mol/L carbonate-bicarbonate buffer pH11 in a new 96-well black plate and incubated for 2 h at room temperature. The intensity of luminescence, which reflected the PLAP activity in the supernatant, was quantified with an Envision 2101 Multilabel Reader. Values obtained from DMSO treated samples in the presence of PGE2 were defined as 100% of control, whereas values obtained from DMSO treated samples in the absence of PGE2 were defined as 0% of control. % of control for compound treated samples was calculated as follows: (actual reading−0% of control)/(100% of control−0% of control)×100. IC50 value for each individual experiment was calculated using GraphPad Prism 6.02 (Lake Forest, Calif.) with % of control values.
Compounds of the present invention were assayed according to the methods as described above, and IC50 values, which may be single assay values or multiple assay average values, are summarized in Table 1. Compounds marked “ABS” show absolute stereochemistry.
Background: A reporter such as luciferase makes a cellular process visible.
The compound `C[C@H](NC(=O)c1c(C(F)(F)F)nn2c1N(Cc1ccc(Cl)c(Cl)c1)CC2)c1ccc(C(=O)O)cc1` [Compound 13, (S)-4-(1-(1-(3,4-dichlorobenzyl)-6-(trifluoromethyl)-2,3-dihydro-1H-imidazo[1,2-b]pyrazole-7-carboxamido)ethyl)benzoic Acid] had an IC50 of 0.44 nM.
Then `C[C@H](NC(=O)c1c(C(F)(F)F)nn2c1N(Cc1ccc(Cl)cc1)CCC2)c1ccc(C(=O)O)cc1` [Compound 41, (S)-4-(1-(4-(4-chlorobenzyl)-2-(trifluoromethyl)-4,5,6,7-tetrahydropyrazolo[1,5-a]pyrimidine-3-carboxamido)ethyl)benzoic Acid], with 1.53 nM; and `C[C@H](NC(=O)c1c(CO)nn2c1N(Cc1cccc(C(F)(F)F)c1)CC2)c1ccc(C(=O)O)cc1` [Compound 93, (S)-4-(1-(6-(Hydroxymethyl)-1-(3-(trifluoromethyl)benzyl)-2,3-dihydro-1H-imidazo[1,2-b]pyrazole-7-carboxamido)ethyl)benzoic Acid], with 6.59 nM; and `C[C@H](NC(=O)c1c(C(F)(F)F)nn2c1N(Cc1cccc(C(F)(F)F)c1)C[C@H]2CO)c1ccc(C(=O)O)cc1` [Compound 83, 4-((S)-1-((S)-3-(hydroxymethyl)-6-(trifluoromethyl)-1-(3-(trifluoromethyl)benzyl)-2,3-dihydro-1H-imidazo[1,2-b]pyrazole-7-carboxamido)ethyl)benzoic Acid], with 0.64 nM.
Then `C[C@H](NC(=O)c1c(C(F)(F)F)nn2c1N(Cc1cccc(C(F)(F)F)c1)CC2)c1ccc(C(=O)NS(=O)(=O)c2ccc(F)c(F)c2)cc1` [Compound 53, (S)—N-(1-(4-(((3,4-difluorophenyl)sulfonyl)carbamoyl)phenyl)ethyl)-6-(trifluoromethyl)-1-(3-(trifluoromethyl)benzyl)-2,3-dihydro-1H-imidazo[1,2-b]pyrazole-7-carboxamide], with 3.91 nM; and `O=C(O)c1ccc([C@H](CO)NC(=O)c2c(C(F)(F)F)nn3c2N(Cc2cccc(C(F)(F)F)c2)CC3)cc1` [Compound 87, (R)-4-(2-hydroxy-1-(6-(trifluoromethyl)-1-(3-(trifluoromethyl)benzyl)-2,3-dihydro-1H-imidazo[1,2-b]pyrazole-7-carboxamido)ethyl)benzoic Acid], with 34.7 nM; and `C[C@H](NC(=O)c1c(C(F)(F)F)nn2c1N(Cc1cc(O)cc(C(F)(F)F)c1)CC2)c1ccc(C(=O)O)cc1` [Compound 77, (S)-4-(1-(1-(3-hydroxy-5-(trifluoromethyl)benzyl)-6-(trifluoromethyl)-2,3-dihydro-1H-imidazo[1,2-b]pyrazole-7-carboxamido)ethyl)benzoic Acid], with 0.182 nM.
For `Cc1cccc(CN2CCn3nc(C(F)(F)F)c(C(=O)N[C@@H](C)c4ccc(C(=O)O)cc4)c32)c1` [Compound 18, (S)-4-(1-(1-(3-methylbenzyl)-6-(trifluoromethyl)-2,3-dihydro-1H-imidazo[1,2-b]pyrazole-7-carboxamido)ethyl)benzoic Acid], the half-inhibitory concentration (IC50) was found to be 0.64 nM.
The same measure for `C[C@H](NC(=O)c1c(C(F)(F)F)nn2c1N(Cc1ccc(CCCF)c(C(F)(F)F)c1)CC2)c1ccc(C(=O)O)cc1` [Compound 98, (S)-4-(1-(1-(4-(3-Fluoropropyl)-3-(trifluoromethyl)benzyl)-6-(trifluoromethyl)-2,3-dihydro-1H-imidazo[1,2-b]pyrazole-7-carboxamido)ethyl)benzoic Acid]: 17.7 nM; for `C[C@H](NC(=O)c1c(C(F)(F)F)nn2c1N(c1ccc(Cl)cc1)CC2)c1ccc(C(=O)O)cc1` [Compound 50, (S)-4-(1-(1-(4-chlorophenyl)-6-(trifluoromethyl)-2,3-dihydro-1H-imidazo[1,2-b]pyrazole-7-carboxamido)ethyl)benzoic Acid]: 91.3 nM.

The term IC50 denotes the concentration needed to halve the response being measured. A high value points to weaker potency.
